Measurements: US10022382B2, “RNA polymerase I inhibitors and uses thereof” (Tel HaShomer Medical Research Infrastructure and Services …, priority 2013, dated 2018)

What was measured:
Solubility in mQ water = format: physicochemical; settings: 50 mg in 0.5 mL mQ water, room temperature
Method: The solubility of Compounds 1 and 10 was determined by dissolving 50 mg of the tested compound in 0.5 mL of mQ water, at room temperature.

[1] = system: MOG35-55 EAE in C57BL/6J mice; assay: MOG35-55 EAE prevention (immunization) model; format: in vivo; settings: for minimal effective dose: oral
Method: Mice: Eight-weeks-old female C57BL/6J mice (15-20 g, Harlan laboratories, Rehovot, Israel) were used in all experiments. Animal maintenance and experimental protocols were performed in accordance with the Israeli Council for Animal Care guidelines and approved by Sheba IRB Animal Care Committee. Mice were kept in an SPF environment, maintained on a 12-h light/dark cycle at a constant environmental temperature with free access to food and water in their home cages.
Induction of MOG35-55 EAE (Prevention Model): EAE (Experimental Autoimmune Encephalomyelitis) was induced in 8 week old female C57BL/6J mice (15-20 g, Harlan laboratories, Rehovot, Israel) by immunization with an emulsion containing 300 μg of purified myelin oligodendrocyte glycoprotein (MOG) peptide ([…], corresponding to residues 35-55; obtained from (Difco, Detroit, Mich.) in saline and an equal volume of complete Freund's adjuvant containing 5 mg H37RA (Difco, Detroit, Mich.). 0.2 ml of the inoculum was injected subcutaneously. In addition, 300 ng of Bordetella pertusis toxin (Sigma) in 0.2 ml saline was injected intraperitoneally at the day of induction and two days later.
Oral gavages with the tested compound, at various concentrations ranging from 3 mg/kg-30 mg/kg in PBS or 50 mM NaH2PO4 (PH 4.5), or with vehicle only, were initiated at day of immunization. Mice were monitored daily for clinical signs of EAE, scored as: 1, flaccid tail; 2, forelimb weakness and poor righting ability; 3, hind limb paralysis; 4, quadriplegia; 5, moribund. Animal reaching a score of 4 were scarified using CO2.
Treatment was stopped once 30% of the vehicle-treated animals scored 1 on the EAE score. […]
The therapeutic index (LD50/ED50), which is also referred to herein as Safety Margin (SM), was then determined based on the EAE model. ED50 is the minimum effective dose observed for 50% of the tested animals.

Pol II = assay: Cell-free polymerase II transcription from CMV promoter; format: biochemical, human; settings: 200 nM
Method: Transcription by polymerase II from CMV promoter was tested similarly using the template provided HeLa scribe kit of Promega, further processing as described above and analysis of transcript with template specific primers: POL II forward primer: ctatgcgcacccgttctc (SEQ ID NO: 73), Pol II reverse primer: gtagcgaagcgagcagga (SEQ ID NO: 74). Probe ID: #70, cat. no. 04688937001 (Roche), was used for both reactions.

pre-rRNA = assay: Q-RT-PCR of pre-rRNA in PHA-stimulated splenocytes of naive mice; format: cell-based; settings: 72 hours, 25 to 400 nM
Method: RNA samples from similar cultures were also prepared and tested by Q-RT-PCR for pre-rRNA expression levels as described in Example herein below.
RNA Extraction: For in vivo experiments spleens from EAE mice were isolated at day 17 post immunization and splenocytes were re-stimulated for 72 h hours in the presence of 5.0 μg/ml MOG35-55. For in-vitro experiments spleens from intact mice were isolated and splenocytes were stimulated with for 72 h in the presence of PHA. RNA was extracted from splenocytes of both the in-vitro and in-vivo experiments by robotic ABI PRISM, Applied biosystem 6100 Nucleic Acid Prep Station. To avoid genomic DNA contamination samples were treated with DNase I (Roche). The quality and integrity of the total RNA preparation was confirmed using a NanoDrop 2000c Spectrophotometer (Thermo Scientific).
Quantitative RT-PCR of Pre-rRNA: Complementary DNA was obtained from the extracted RNA by the High capacity cDNA reverse transcription kit (Applied Biosystems, CA, USA) following manufacturer's instructions. To confirm the role of POL1 pathway suppression by POL1-Inhibitors, the expression level of pre-rRNA transcript, a key gene of the RNA polymerase I pathway, was evaluated by Q-RT-PCR (n=3 per group). […] (SEQ ID NO: 70) with a quantification probe (Roche, Probe ID #1, cat. no. 04684974001). […]

[2] = Bioavailability: serum level after oral gavage or IV; format: in vivo, mice; settings: for time to maximal concentration: healthy C57B6J female mice
Method: Bioavailability: Determination of the level of the tested compound in serum was done following oral gavage. Blood samples (0.5 mL) were collected and immediately centrifuged at 5,000 rpm for 10 minutes. The serum was separated and stored at −20° C. until fluoprometric analysis by Tecan SpectraFluor, based on the specific excitation/emission values of the tested compound was conducted. The pharmacokinetic parameters including serum maximum concentration (Cmax), the time needed to reach Cmax (Tmax), and half-life (T1/2), were calculated to evaluate oral bioavailability. The serum concentration after oral gavages was calculated according to a calibration curve for each compound in the serum. The Pharmacokinetic properties of compound 10 were quantified by the LCMS method described below. The concentration of Compound 10 was calculated with a calibration curve. The serum was prepared for analysis using protein precipitation. 15 μL of water were added to 15 μL of serum and a H2O: MeOH: CHCl3 (90:120:30) solution was added. The supernatant was subjected to LCMS analysis equipped with a PHENOMENEX® C-18 RP column.

Cc1cnc(CNC(=O)c2/c(=N/c3ccccc3)c3ccc(N4CCCN(C)CC4)nc3n3c2sc2ccccc23)cn1 [Compound 10, (E)-2-(4-methyl-1,4-diazepan-1-yl)-N-((5-methylpyrazin-2-yl)methyl)-5-(phenylimino)-5H-benzo[4,5]thiazolo[3,2-a][1,8]naphthyridine-6-carboxamide]
solubility (Solubility in mQ water): immediately dissolved in the aqueous solution
disease incidence ([1]; 3 mg/kg, alternate days): 98%
delay of disease development ([1]; 12.0 mg/kg oral, alternate days): 10 days
EAE severity ([1]; 12.0 mg/kg oral, alternate days, 23 day post immunization): suppressed EAE severity
EAE onset (dpi) ([1]; 12.5 mg/Kg oral, 15 mice): 19.2 ± 0.6 dpi
Max clinical score ([1]; 12.5 mg/Kg oral, 15 mice): 1.2 ± 0.4
Peak of EAE (dpi) ([1]; 12.5 mg/Kg oral, 15 mice): 20.4 ± 0.7 dpi
Cumulative disease score ([1]; 12.5 mg/Kg oral, sum of scores day 0 to day 31): 7.2 ± 1.9
additional days free of disease compared to vehicle ([1]; 12.5 mg/Kg, 15 mice per group): 10 days
delay of peak of disease compared to vehicle ([1]; 12.5 mg/Kg, 15 mice per group): 6 days
EAE inhibition ([1]; 12.5 mg/kg daily): complete inhibition of EAE
disease incidence ([1]; 12.5 mg/kg, alternate days): 22%
disease development ([1]; 30 mg/kg, alternate days): completely inhibited disease development
ED50 ([1]; Mus musculus): 3 mg/kg
minimal effective dose ([1]; alternate days): 6 mg/kg
minimal effective dose ([1]; daily administration): 3.0 mg/kg
effect on Pol II transcription from the CMV promoter (Pol II): 5%
pre-rRNA mRNA levels expressed by splenocytes (pre-rRNA): significant dose dependent decrease
bioavailability AUC(oral)/AUC(IV) ([2]; 12.5 mg/kg, up to 168 h): 72%
time to maximal concentration ([2]; IV, 12.5 mg/kg): 0.5 h
Cmax compared to Compound 1 ([2]; mice serum, oral gavage): higher
Tmax compared to Compound 1 ([2]; mice serum, oral gavage): lower
clearance compared to Compound 1 ([2]; mice serum, oral gavage): faster
absorption ([2]; oral and IV, 12.5 mg/kg): rapidly absorbed
time to maximal concentration ([2]; oral, 12.5 mg/kg): 2 h
